Measurements published in publication PMC4567917 (Bioorganic chemistry, 2015).
Where two headings read alike, the source gives them in different places. Non-standard residues stand in square brackets, D forms with d. No end group written: not given here. *: point of attachment. Biotin = O=C1N[C@H]2[C@H](CS[C@H]2CCCCC(=O)*)N1; Dap = NC[C@H](N)C(=O)O; Ahx = NCCCCCC(=O)O

Experiments:
mouse GOAT [1] = biological target: T1, mouse GOAT (Mus musculus, UniProt P0C7A3); assay: Microsomal ghrelin octanoyltransferase assay; conditions: for Km: read-out: Km (apparent) for octanoyl-CoA; for Km / Vmax (apparent) for octanoyl-CoA / Vmax (apparent): 50 μM palmitoyl-CoA, 1 min at 30°C; for Km / Vmax (apparent) for octanoyl-CoA: 25 μg microsome protein; for Vmax (apparent): ghrelin substrate varied, 25 μg microsome protein (2 ng GOAT); for Vmax (apparent) / maximum reaction rate, fold lower than for the natural Ser analogs: 1 μM octanoyl-CoA; for maximum reaction rate, fold lower than for the natural Ser analogs: relative to the Ser3 analog
T1 sequence (P0C7A3 1-435): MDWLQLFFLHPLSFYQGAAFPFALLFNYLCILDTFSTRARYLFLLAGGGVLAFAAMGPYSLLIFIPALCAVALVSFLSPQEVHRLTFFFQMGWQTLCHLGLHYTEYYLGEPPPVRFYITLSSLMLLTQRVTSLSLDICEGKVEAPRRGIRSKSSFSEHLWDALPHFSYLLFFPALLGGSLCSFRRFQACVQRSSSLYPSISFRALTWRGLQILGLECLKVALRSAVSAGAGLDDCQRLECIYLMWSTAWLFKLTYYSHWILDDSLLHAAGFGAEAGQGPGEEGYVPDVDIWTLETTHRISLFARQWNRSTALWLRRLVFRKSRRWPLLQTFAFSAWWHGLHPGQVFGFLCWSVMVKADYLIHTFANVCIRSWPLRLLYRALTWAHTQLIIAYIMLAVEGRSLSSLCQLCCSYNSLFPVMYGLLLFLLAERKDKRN

GOAT = conditions: ref [33], cited from earlier work; for Km: read-out: published Km, published values
[2] = cited from earlier work
mouse GOAT [3] = biological target: T1, mouse GOAT; assay: Ghrelin octanoyltransferase assays at varying pH; format: biochemical; conditions: 7.5 μM and 100 μM substrate, 1 min, Bis-Tris propane pH 6–9

CCCCCCCC(=O)SCCNC(=O)CCNC(=O)[C@H](O)C(C)(C)COP(=O)(O)OP(=O)(O)OC[C@H]1O[C@@H](n2cnc3c(N)ncnc32)[C@H](O)[C@@H]1OP(=O)(O)O [Octanoyl-CoA, reference compound]
Km (mouse GOAT [1]; vs 10 μM Ghrelin27): 0.44 ± 0.04 µM | Km (mouse GOAT [1]; vs 80 μM Ghrelin10): 0.81 ± 0.04 µM | Vmax (apparent) for octanoyl-CoA (mouse GOAT [1]; vs 10 μM Ghrelin27): 250 ± 8 nmol/min/mg | Vmax (apparent) for octanoyl-CoA (mouse GOAT [1]; vs 80 μM Ghrelin10): 190 ± 4 nmol/min/mg | Km (GOAT): 0.6 µM | microsomal octanoyl-CoA hydrolysis (GOAT; with 50 μM palmitoyl-CoA, under the conditions of the assay): < 25%

NCC(N)C(=O)O (stereo not shown) [amino-Ala, 2,3-diaminoproprionic acid]
sidechain pKa (RNH3+ to RNH2) ([2]; peptide-incorporated residue, ref [36]): ~ 8

GS(Dap)FLSPEHQ(Ahx)K(Biotin)G [Dap3-Ghrelin10]
Vmax (apparent) (mouse GOAT [1]): 74 ± 8 nmol/min/mg | maximum reaction rate, fold lower than for the natural Ser analogs (mouse GOAT [1]): approximately 2 fold | variation of octanoylation rate across pH 6–9 (mouse GOAT [3]): ≤ 2 fold

GSSFLSPEHQ[Ahx]K(Biotin)G [Ghrelin10]
Vmax (apparent) (mouse GOAT [1]): 160 ± 10 nmol/min/mg | fold higher apparent Km than Ghrelin27 (mouse GOAT [1]; relative to Ghrelin27): ~ 10 fold | variation of octanoylation rate across pH 6–9 (mouse GOAT [3]): ≤ 2 fold

GS[Dap]FLSPEHQRVQQRKESKKPPAKLQPK(Biotin)G [Dap3-Ghrelin27]
Vmax (apparent) (mouse GOAT [1]): 85 ± 5 nmol/min/mg | maximum reaction rate, fold lower than for the natural Ser analogs (mouse GOAT [1]): approximately 2 fold

GSSFLSPEHQRVQQRKESKKPPAKLQPK (Biotin)G (GSSFLSPEHQRVQQRKESKKPPAKLQPK-{Gly(Biotin)}; not fully specified) [Ghrelin27]
Vmax (apparent) (mouse GOAT [1]): 230 ± 10 nmol/min/mg | fold lower apparent Km relative to Ghrelin10 (mouse GOAT [1]; relative to Ghrelin10): 10 fold

N[C@@H](CO)C(=O)O [Ser]
sidechain pKa (ROH to RO-) ([2]; ref [37]): ~ 13

B1: proghrelin-His8: proghrelin with His8 tag; proghrelin is likely the natural substrate for GOAT (protein, UniProt Q9UBU3 24-117, looked up)
pro-form: GSSFLSPEHQRVQQRKESKKPPAKLQPRALAGWLRPEDGGQAEGAEDELEVRFNAPFDVGIKLSGVQYQQHSQALGKFLQDILWEEAKEAPADK
modifications: pro-form His8 tag
Km (GOAT): 6 µM
